In patent publication US12668803B2, “Glypican-3-specific modified aptamer and use thereof” (APTAMER SCIENCES INC., priority 2019, dated 2026):

Experiments:
[1] = test system: hepatoma cells (Hep3B, HepG2); test: Cell cycle analysis (propidium iodide, FACS); type: cell-based; conditions: 4 hr treatment, FIGS. 25 and 26
Procedure: (§1) To analyze the effects of combi 4 and combi 5 bound with three or five gemcitabines on the cell cycle of hepatoma cells, cell cycle analysis was performed. In detail, Hep3B, HepG2, and A431 cells were seeded in a 6-well plate at a density of 1×10^6/ml, and cultured using a DMEM medium containing 10% FBS and 1% antibiotics (penicillin/streptomycin) under conditions of 5% CO2 and 37° C., respectively. Next day, 100 μM of the modified aptamer stock was mixed with 5×SB18 buffer to prepare the aptamer at a concentration of 80 μM, and heated at 95° C. for 5 min, and then cooled at room temperature for 15 min or more. The medium was removed from the cultured cells, and replaced by a serum-free medium, and cultured under conditions of 37° C. and 5% CO2 for 1 hr. The serum-free medium was removed, and then the cells were washed with 2 ml of 1×PBS. 2 ml of KRPH buffer was added, and cultured under conditions of 37° C. and 5% CO2 for 1 hr. The aptamer was added, and cultured under conditions of 37° C. and 5% CO2 for 4 hr. The KRPH buffer was removed, and 2 ml of 1×PBS was added thereto to perform washing, and then PBS was removed. 2 ml of 1×PBS was added, and cells were scraped using a scraper, and collected in FACs tubes, followed by centrifugation at 4° C. and 2000 rpm for 4 minutes. 1/500-fold diluted RNAase A and propidium iodide diluted with PBS at a concentration of 50 μg/ml were added to the FACs tubes at a volume of 500 μL, followed by pipetting. Incubation was performed at room temperature for 30 min while blocking the light, and then cell cycle was measured.

[2] = test system: squamous cell carcinoma cells (A431); test: Cell cycle analysis (propidium iodide, FACS); type: cell-based; conditions: 4 hr treatment, FIG. 27
Procedure: as §1

[3] = test system: GPC3-expressing hepatoma cells; test: Cell-killing effect (CCK-8) of gemcitabine-bound combi aptamers; type: cell-based; conditions: FIG. 23 and FIG. 24
Procedure: In detail, Huh-7 cells (ATCC, Rockville, MD, USA) were seeded in a 96-well plate at a density of 1×10^4/mL, and cultured using a DMEM (Gibco, Grand Island, NY, USA) medium containing 10% FBS (Gibco, Grand Island, NY, USA) and 1% antibiotics (penicillin/streptomycin) under conditions of 5% CO2 and 37° C. Next day, the aptamer stock (100 μM) was mixed with 5×SB18 buffer to prepare the stock at a concentration of 80 μM, and heated at 95° C. for 5 min, and then cooled at room temperature for 15 min or more. The medium was removed from the cultured cells, and 100 μL of a serum-free medium was added thereto, and cultured under conditions of 37° C. and 5% CO2 for 1 hr. The serum-free medium was removed, and then the cells were washed with 100 μL of 1×PBS. 100 μL of KRPH buffer was added, and cultured under conditions of 37° C. and 5% CO2 for 1 hr. The aptamer was diluted with KRPH buffer to 2-fold of the desired concentration, and added to a 96-well plate at 1× concentration, and cultured under conditions of 37° C. and 5% CO2 for 4 hr. After treatment with the aptamer, the KRPH buffer was removed, and then 100 μL of culture medium was added and cultured under conditions of 37° C. and 5% CO2 for […]. 6 days later, 10 μL of a kit solution of CCK-8 (Cell Counting Kit-8) was added to each well, and then cultured under conditions of 37° C. and 5% CO2 for 3 hr. Cell death levels were examined at […] using a microplate reader.

GPC3 = GPC3 (Homo sapiens, UniProt P51654); test: Protein binding assay with 32P-labeled aptamers (Zorbax resin, filter plate, phosphorimager); conditions: FIG. 1
Sequence of GPC3 (P51654 25-554): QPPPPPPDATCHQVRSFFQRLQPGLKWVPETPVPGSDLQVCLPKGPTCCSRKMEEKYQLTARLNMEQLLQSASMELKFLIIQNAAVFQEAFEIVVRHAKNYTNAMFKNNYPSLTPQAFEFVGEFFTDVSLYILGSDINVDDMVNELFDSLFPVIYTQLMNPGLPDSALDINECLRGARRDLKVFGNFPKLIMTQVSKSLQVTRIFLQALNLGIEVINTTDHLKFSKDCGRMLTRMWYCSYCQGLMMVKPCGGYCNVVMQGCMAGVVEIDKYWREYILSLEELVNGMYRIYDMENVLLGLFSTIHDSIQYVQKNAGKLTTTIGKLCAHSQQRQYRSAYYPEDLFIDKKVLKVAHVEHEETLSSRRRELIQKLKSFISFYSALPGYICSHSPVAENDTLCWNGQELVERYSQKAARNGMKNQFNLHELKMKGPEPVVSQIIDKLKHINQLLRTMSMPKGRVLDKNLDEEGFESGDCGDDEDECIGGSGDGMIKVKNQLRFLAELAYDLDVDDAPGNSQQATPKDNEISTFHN
Procedure: To select an aptamer which is the most specific to GPC3 from 7 aptamer libraries expected to be specific to GPC3 [2428-12-09, 2428-12-10, 2428-12-11, 2424-30-01, 2424-30-05, 2424-30-06, 2424-30-07, all 40-mer], a binding assay was performed through […] labeling. In detail, to […] RI-labeled and unlabeled oligonucleotide region at the oligonucleotide 3′-end of each candidate aptamer sequence, 0.25 μL of α-32P, 0.25 μL of DNA nucleotidylexotransferase (terminal transferase), 1 μL of 10×NEB buffer (New England Biolabs, USA), 1 μL of CoCl2, 7.5 μL of a template (aptamer sequence) (total 10 μL) were added to a plate, which was then sealed with foil, and then incubated at 37° C. for 30 min (enzyme incubation). After incubation at 70° C. for 10 min (enzyme incubation), each of the incubated samples was diluted with 30 μL of distilled water. The lower part of the Microspin G-50 column was removed and a tube was put thereon. After spinning at 800 rcf for 1 min, the tube was removed. The sample was put in a resin, followed by spinning at room temperature and 800 rcf for 2 min.
The aptamers, from which RI-labeled and unlabeled oligonucleotide ends were removed, were diluted with 100 μL of 1×SB18T0.05 to 20,000 cpm. The aptamers were heated at 95° C. for 5 min, and subsequently, cooled at 37° C. for 15 min. 100 nM of protein (GPC3) was subjected to 4.64-fold serial dilution, and each 30 μL of a total of 8 points was added to each well. 200 μL of 1×SB18T0.05 was added to the aptamers, of which heating and cooling were completed, and then 30 μL thereof was added to each well for a total volume of 60 μL. 2 μL of the aptamer was dropped as an input control on a nylon filter, followed by incubation at 37° C. for 30 min. During incubation, 30 μL of 1×SB18T0.05 was added to a filter plate in advance. After incubation, 5.5 μL of Zorbax resin was added, and allowed to react at 1400 rpm for 1 min. […] The screen was analyzed, and the binding degree according to each protein concentration was derived (percentage bound value).

| Molecule | cell cycle arrest [1] | cell cycle arrest [2] | concentration from which a cell-killing effect is shown [3] | binding ability among the candidates (GPC3; 7 candidate 40-mer aptamers) | maximum binding capacity (Bmax) (GPC3) | Kd (GPC3; read-out: dissociation constant (Kd)) |
| --- | --- | --- | --- | --- | --- | --- |
| Combi 5 G(5) (DNA GNGAANGCGNNGAANNANWYSSSNNCAGNCANSAS; 5 gemcitabines, 2'-OMe, BzdU; Combi 5 G(5); (1)..(1) G is 2-O-Methoxy-DNA.; (2)..(2) n is BzdU.; (3)..(3) G is 2-O-Methoxy-DNA.; (4)..(4) A is 2-Fluorine-DNA.; (5)..(5) A is 2-Fluorine-DNA.; (6)..(6) n is BzdU.; (10)..(10) n is BzdU.; (11)..(11) n is BzdU.; (12)..(12) G is 2-Fluorine-DNA.; (13)..(13) A is 2-Fluorine-DNA.; (14)..(14) A is 2-O-Methoxy-DNA.; (15)..(15) n is BzdU.; (16)..(16) n is BzdU.; (17)..(17) A is 2-O-Methox) | arrested hepatoma cells at the G1/S phase | no cell cycle arrest | 100 nM |  |  |  |
| 12-10: SEQ ID NO: 1, 40-mer GPC3-specific aptamer with BzdU bases (GGGAAGnGAAnGCGnnGAAnnAnGnCCCnnCAGnCAnCAC; BzdU bases, as printed in the source, key not given here) |  |  |  | most excellent binding ability | 0.79 | 1.5 nM |
| Nc1ccn([C@@H]2O[C@H](CO)[C@@H](O)C2(F)F)c(=O)n1 [gemcitabine, 2′,2′-difluoro 2′-deoxycytidine, reference compound] |  | no cell cycle arrest |  |  |  |  |
| Combi 11 G(3) (DNA GNGAANGCGNNGAANNANWYSSSNNCAGNCANCAC; gemcitabines, 2'-MOE, 2'-F, BzdU, 3' idT; Combi 11 G(3); (1)..(1) G is 2-Methoxyethyl-DNA.; (2)..(2) n is BzdU.; (3)..(3) G is 2-Methoxyethyl-DNA.; (4)..(4) A is 2-Fluorine-DNA.; (5)..(5) A is 2-Fluorine-DNA.; (6)..(6) n is BzdU.; (10)..(10) n is BzdU.; (11)..(11) n is BzdU.; (12)..(12) G is 2-Fluorine-DNA.; (13)..(13) A is 2-Fluorine-DNA.; (14)..(14) A is 2-Methoxyethyl-DNA.; (15)..(15) n is BzdU.; (16)..(16) n is BzdU.; (17)..(17) A is) |  |  | 200 nM |  |  |  |
| Combi 4 G(5) (DNA GNGAANGCGNNGAANNANGYSSSNNCAGNCANSAS; 5 gemcitabines, 2'-OMe, 2'-F, BzdU, 3' idT; Combi 4 G(5); (1)..(1) G is 2-O-Methoxy-DNA.; (2)..(2) n is BzdU.; (3)..(3) G is 2-O-Methoxy-DNA.; (4)..(4) A is 2-Fluorine-DNA.; (5)..(5) A is 2-Fluorine-DNA.; (6)..(6) n is BzdU.; (10)..(10) n is BzdU.; (11)..(11) n is BzdU.; (12)..(12) G is 2-Fluorine-DNA.; (13)..(13) A is 2-Fluorine-DNA.; (14)..(14) A is 2-Fluorine-DNA.; (15)..(15) n is BzdU.; (16)..(16) n is BzdU.; (17)..(17) A is 2-Fluorine-) | arrested hepatoma cells at the G1/S phase | no cell cycle arrest | 100 nM |  |  |  |
